Experimental data: PubChem BioAssay AID1996
≈ marks a conversion by molar mass, not a printed value.

Settings: buffer; pH 7.4; 200.0 µM

Row | SMILES | solubility kinetic [µg/mL]
1 | CCCCc1nc2sc3c(c2c(=O)[nH]1)CC(C)(C)OC3 | 2.3 (≈ 7.87 µM)
2 | Cc1ccc(CNC(=O)CCSCc2cccc(F)c2)cc1 | 5.2 (≈ 16.4 µM)
3 | Cc1ccc(NC(=S)N(CCN(C)C)Cc2cccs2)cc1 | 12.2 (≈ 36.6 µM)
4 | c1cc(CNCCc2ccc3c(c2)OCO3)ccn1 | 28.5 (≈ 111 µM)
5 | CC(=O)c1ccc(NC2=NCCCS2)cc1 | > 35.1
6 | Cc1nc2ccc(NC(=O)c3ccco3)cc2nc1C | > 40.1
7 | Cn1c(COc2ccc(C(=O)O)cc2)nc2ccccc21 | > 42.3
8 | O=C(C1CC1)N1CCN(Cc2ccccc2)CC1 | 33.5 (≈ 137 µM)
9 | CC(C)CNC(=O)COC(=O)c1c2c(nc3ccccc13)CCC2 | > 49
10 | c1ccc(NCc2ccncc2)cc1 | > 27.6
11 | COc1cc2sc(C)nc2c2ccccc12 | 2.9 (≈ 12.6 µM)
12 | CC(=O)Nc1ccc(SCC(=O)NCC2(N3CCCCC3)CCCCC2)cc1 | > 60.5
13 | CCNC(=S)N1CCCCC1CO (stereo not drawn) | 27.2 (≈ 134 µM)
14 | COc1ccc(CN(C(=O)/C=C/c2ccco2)C2CCS(=O)(=O)C2)cc1 (stereo not drawn) | 44.7 (≈ 119 µM)
15 | COc1ccc(/C=C/C(=O)OCC(=O)NCc2ccccc2Cl)cc1OC | 8.3 (≈ 21.3 µM)
16 | COc1ccccc1N1CCNCC1.Cl | 28.2
17 | CCSc1nc2sccc2c(=O)n1-c1ccccc1 | 27.3 (≈ 94.7 µM)
18 | CCOc1cccc(C(=O)Nc2cccc(NC(=O)c3ccco3)c2)c1 | 3.9 (≈ 11.1 µM)
19 | CCOc1ccc2nc(N3C(=O)CNC3=S)sc2c1 | 2.5 (≈ 8.52 µM)
20 | CC(C(=O)N1CCCC1)N1CCN(c2ccccc2O)CC1 (stereo not drawn) | > 45.5
21 | COc1ccc(CCNC(=O)C2CC=CCC2C(=O)O)cc1 (stereo not drawn) | > 45.5
22 | COc1ccc([N+](=O)[O-])cc1NC(=O)COC(C)=O | 35.7 (≈ 133 µM)
23 | O=C(Nc1cccc(S(=O)(=O)N2CCCCC2)c1)C1COc2ccccc2O1 (stereo not drawn) | 6.6 (≈ 16.4 µM)
24 | Cc1ccc(C(=O)OCC(=O)NCc2ccc3c(c2)OCO3)cc1S(=O)(=O)N1CCOCC1 | 7.2 (≈ 15.1 µM)

Row | SMILES | solubility kinetic [µg/mL]
25 | O=c1ccnc(SCCc2ccccc2)[nH]1 | > 34.8
26 | Cc1ccc(C(C)C)c(OCCN2CCc3ccccc3C2)c1.Cl | < 0.7
27 | COc1cc(CN2CCCCCC2)cc(OC)c1O | 27 (≈ 102 µM)
28 | COc1ccc(/C=C/C(=O)Nc2ccc(C)c(S(=O)(=O)N3CCOCC3)c2)cc1 | 7.4 (≈ 17.8 µM)
29 | CC(C)CNS(=O)(=O)c1ccc(CCC(=O)N2CCCC2)cc1 | > 50.8
30 | COc1ccc(S(=O)(=O)N2CCOCC2)cc1NS(=O)(=O)c1ccc(F)c(F)c1 | > 67.3
31 | COc1cc(S(=O)(=O)NCc2ccc3c(c2)OCO3)c(OC)cc1C | 53.9 (≈ 148 µM)
32 | O=C(Nc1cccc(Cl)c1N1CCOCC1)c1cccs1 | 1.6 (≈ 4.96 µM)
33 | Cc1ccccc1/C=C/C(=O)N1CCOCC1 | > 34.7
34 | O=C(COC(=O)c1ccccc1Cl)Nc1ccc2[nH]c(=O)[nH]c2c1 | 23.3 (≈ 67.4 µM)
35 | CCC1Sc2ccccc2N(CC(=O)NC2CCCCC2)C1=O (stereo not drawn) | > 49.9
36 | Cc1ccccc1C(=O)Nc1ccc(S(=O)(=O)N2CCOCC2)cc1 | > 54.1
37 | Cc1ccc(NC(=S)N2CCCCCC2)cc1 | > 37.3
38 | Cc1ccc(CNS(=O)(=O)c2c(C)n(C)c(=O)n(C)c2=O)cc1 | > 50.6
39 | COC(=O)c1[nH]c2ccccc2c1NC(=O)C(C)N1CCOCC1 (stereo not drawn) | > 49.7
40 | O=C(Nc1ccc2oc(=O)ccc2c1)c1ccc(-c2cccc([N+](=O)[O-])c2)o1 | 3.5 (≈ 9.3 µM)
41 | COc1ccc(Cl)cc1NC(=O)Nc1ccccc1SC | < 0.3
42 | COc1ccccc1Nc1nc(Cl)c(C=O)s1 | 12.1 (≈ 45 µM)
43 | O=C(O)CCn1c(Cc2ccccc2)nc2ccccc21 | > 42
44 | COC(=O)C(Cc1cccc(C)n1)(c1ccccc1)c1ccccc1 | 14.2 (≈ 42.8 µM)
45 | CC1CCCC(C)N1C(=O)COC(=O)c1cncc(Br)c1 (stereo not drawn) | > 53.3
46 | COC(=O)CCC(=O)NNC(=O)c1ccc([N+](=O)[O-])cc1 | > 44.3
47 | O=C(O)/C=C/C(=O)Nc1ccc(OC(F)F)cc1 | > 38.6
48 | CCCCc1noc(-c2c(-c3ccccc3Cl)noc2C)n1 | 0.6 (≈ 1.89 µM)

Row | SMILES | solubility kinetic [µg/mL]
49 | O=C(Nc1ccc(-c2cnco2)cc1)c1ccc(F)cc1F | 0.8 (≈ 2.66 µM)
50 | Cc1ccc(-c2cc(N)nc(-c3ccccc3)c2)cc1 | < 0.3
51 | COC(=O)c1cccc(NC(=O)NC(=O)c2ccccc2Cl)c1 | 0.6 (≈ 1.8 µM)
52 | Cc1ccc(C(=O)NCCc2c[nH]c3ccccc23)s1 | > 42.7
53 | COc1ccc(/C(N)=N/OC(=O)c2ccc(OC)c([N+](=O)[O-])c2)cc1OC | 0.6 (≈ 1.6 µM)
54 | O=C(CC(=O)Nc1nc(C23CC4CC(CC(C4)C2)C3)cs1)NCCO | 50.8 (≈ 140 µM)
55 | Cc1cc(NC(=O)COC(=O)C2CSC3(C)CCC(=O)N23)ccc1Br (stereo not drawn) | > 64.1
56 | C/C(=C\c1ccccc1)CN1CCN(Cc2ccc(C)o2)C(CCO)C1 (stereo not drawn) | 42.2 (≈ 119 µM)
57 | CCOc1cc(/C=C2/NC(=O)N(CC(=O)OC)C2=O)ccc1O | 14.8 (≈ 46.2 µM)
58 | CN1C(=O)OC(C)(C)C1=O | < 0.3
59 | O=C(c1ccc(Br)o1)N1CC=C(c2ccccc2)CC1 | 33 (≈ 99.3 µM)
60 | Cc1cc(C(=O)Nc2cccc([N+](=O)[O-])c2C)cs1 | 13.6 (≈ 49.2 µM)
61 | COc1cccc(-n2ccnc2SCC(=O)Nc2cc(C)on2)c1 | 37.5 (≈ 109 µM)
62 | CCN(CC(=O)NCc1cccs1)C(=O)c1ccc(S(=O)(=O)N(C)c2ccccc2)cc1 | > 70.7
63 | Cc1ccc(OCC(O)CN2CCOCC2)cc1C.Cl (stereo not drawn) | > 45.3
64 | Cc1ccc(Nc2nc(-c3ccncc3)nc3ccccc23)cc1 | < 0.2
65 | COc1ccc(C(=O)NC(C)CCc2ccccc2)cc1 (stereo not drawn) | 41.9 (≈ 148 µM)
66 | CCN(CC)C(=O)c1ccc(NC(=O)c2ccc3c(c2)NC(=O)CS3)cc1 | 6.2 (≈ 16.2 µM)
67 | O=C(Nc1ccc(S(=O)(=O)NC2=NCCCCC2)cc1)c1cccs1 | > 56.6
68 | O=C(O)Cc1ccc(NC(=O)Nc2cccc3ccccc23)cc1 | 45.1 (≈ 141 µM)
69 | CC(=O)Nc1cccc(C(=O)Nc2cccc3ncccc23)c1 | 40.3 (≈ 132 µM)
70 | Cc1ccc(S(=O)(=O)NC(=O)Nc2c(C)cccc2C)cc1 | 33.6 (≈ 106 µM)
71 | CC(C)Oc1cccc(C(=O)C2CCCN(S(C)(=O)=O)C2)c1 (stereo not drawn) | > 48.8
72 | CN(C)/C=C/C(=O)c1cccc(C(F)(F)F)c1 | > 36.5

Row | SMILES | solubility kinetic [µg/mL]
73 | CC1CN(c2ccc(S(=O)(=O)N3CCCC3)cn2)CC(C)O1 (stereo not drawn) | > 48.8
74 | COc1ccccc1Nc1nc(NCCO)nc(N)c1[N+](=O)[O-] | 3.4 (≈ 10.6 µM)
75 | COCCN(CC(=O)Nc1cccc(C)c1C)C(=O)c1oc2ccccc2c1C | 7.4 (≈ 18.8 µM)
76 | Cc1cccc(C)c1N(CC(=O)N1CCCC1)S(C)(=O)=O | 35.2 (≈ 113 µM)
77 | COc1cc(OC)cc(C(=O)NCCc2ccc(OC)c(OC)c2)c1 | 45.5 (≈ 132 µM)
78 | COc1ccc(C(=O)Nc2cccc(S(=O)(=O)NC3=NCCC3)c2)cc1OC | 40.4 (≈ 100 µM)
79 | O=C(COC(=O)c1ccco1)NCc1ccccc1Cl | > 44.1
80 | CNS(=O)(=O)c1cccc(C(=O)NCC2CCCCC2)c1 | > 46.6
81 | Cc1cc(C(=O)NC2CCCCC2C)c2ccccc2n1 (stereo not drawn) | > 42.4
82 | O=C(CCSCc1ccccc1Cl)NC1CCCCC1 | 8.1 (≈ 26 µM)
83 | O=C(CN1C(=O)NC2(CCc3ccccc32)C1=O)Nc1ccccc1Cl (stereo not drawn) | > 55.5
84 | CCOc1ccc(OCCCC(=O)N2CCN(S(=O)(=O)c3ccccc3C#N)CC2)cc1 | 27.2 (≈ 59.4 µM)
85 | O=C1N=C(N2CCCC2)S/C1=C\C=C\c1ccccc1 | 10.2 (≈ 35.9 µM)
86 | CCOc1ccc(N2C(=O)/C(=C/c3ccc(C)o3)C(=O)NC2=S)cc1 | > 53.5
87 | Cc1ccc(C)c(NC(=O)CN(C)C(=O)c2cc3ccccc3oc2=O)c1 | > 54.7
88 | COc1ccc2ccccc2c1CNCCc1ccccc1.Cl | 42
89 | CCC1(c2ccc(-c3ccccc3)cc2)C(=O)NC(=O)NC1=O | 4.6 (≈ 14.9 µM)
90 | CC1CN(S(=O)(=O)c2cccc(C(=O)NCCc3ccc(S(N)(=O)=O)cc3)c2)CC(C)O1 (stereo not drawn) | > 72.2
91 | COc1ccc(OCC(=O)Nc2ccccc2Cl)cc1 | 4.5 (≈ 15.4 µM)
92 | O=C(Nc1ccc2ncccc2c1)c1ccccc1 | 30.7 (≈ 124 µM)
93 | O=C(NC1CCN(c2ncccn2)CC1)c1cccc(F)c1 | 32.8 (≈ 109 µM)
94 | Br.CNc1nc2ccccc2n1CC(=O)c1ccccc1 | > 51.9
95 | COc1cc(NC(=O)C[n+]2ccc(C(=O)c3ccccc3)cc2)cc(OC)c1.[Cl-] | > 61.9
96 | O=C(O)c1cc(S(=O)(=O)N2CCOCC2)c[nH]1 | > 39

Row | SMILES | solubility kinetic [µg/mL]
97 | CCN(CC)CCn1c(NC(=O)c2ccccc2O)nc2ccccc21 | 18.5 (≈ 52.5 µM)
98 | Cc1noc(C)c1NC(=O)NCCN1CCN(Cc2ccccc2)CC1 | > 53.6
99 | Cc1ccccc1Nc1c(-c2ccccc2)nc2ncccn12 | 8.1 (≈ 27 µM)
100 | CCCCNC(=S)N1CCN(C)CC1.O=C(O)C(=O)O | > 45.8
101 | CC(=O)Nc1ccc(C(=O)COC(=O)c2cc(C)oc2C)c(F)c1 | 7.8 (≈ 23.4 µM)
102 | CCOc1ccc(C(C)=O)cc1Cc1c(O)[nH]c(=S)[nH]c1=O | 46.3 (≈ 145 µM)
103 | CC1=C(C(=O)OCCOC(C)C)C(c2cccc3ccccc23)NC(=O)N1 (stereo not drawn) | 4.6 (≈ 12.5 µM)
104 | CC(=O)Nc1cccc(NC(=O)Cc2ccc3ccccc3c2)c1 | 0.9 (≈ 2.83 µM)
105 | O=C(COC(=O)/C=C/c1ccc(Cl)cc1)NC1CCCC1 | 3.5 (≈ 11.4 µM)
106 | O=C(NCc1ccccc1)c1ccc(NC(=O)c2ccco2)cc1 | 2 (≈ 6.24 µM)
107 | COc1cccc(C(=O)O/N=C(\C)c2cnccn2)c1 | 30.7 (≈ 113 µM)
108 | Cc1ccc(NC(=O)CCNC(=O)c2ccc(Cl)cc2)nc1 | 16.8 (≈ 52.9 µM)
109 | Cc1ccc(OCC(=O)N2CCc3ccccc3C2)cc1 | > 42.2
110 | COc1ccccc1/C=C1\C(=O)Nc2ccccc21 | 2 (≈ 7.96 µM)
111 | O=C(CCc1nnc(-c2ccccc2)o1)NC1CCCCC1 | > 44.9
112 | Cc1ccc(N2C(=O)[C@@H]3C(c4cccnc4)=NO[C@@H]3C2=O)cc1 | > 46.1
113 | COC(=O)c1sc(=S)n(Cc2ccccc2)c1C | 7.1 (≈ 25.4 µM)
114 | O=C1CSC(c2ccccn2)N1c1ccc(F)cc1F (stereo not drawn) | > 43.8
115 | COc1ccc(NC(=O)c2cc3cc(OC)ccc3oc2=O)cc1 | < 0.7
116 | Nc1cc(N)nc(SCC(=O)NCc2ccco2)n1 | > 41.9
117 | CCC(C)c1c(O)nc(SCC(=O)N2CCCCC2)[nH]c1=O (stereo not drawn) | > 48.8
118 | Cc1onc(C(=O)Nc2ccccc2C(F)(F)F)c1[N+](=O)[O-] | > 47.3
